Measured values taken from patent US20230174554A1, “SOLID FORM OF MACROCYCLIC COMPOUND, PREPARATION THEREFOR AND USE THEREOF” (Shenzhen TargetRx. Inc., priority 2020, published 2023).
In brackets after ≈: the same amount, converted by molar mass. One block for each molecule: values may come before it.

How the values were obtained:
Format in all cases: physicochemical
[1] = Solubility of the starting material (compound A crystal form I) in different solvents
[2] = Dynamic moisture adsorption and desorption analysis (DVS), hygroscopicity, XRPD after test
Experimental: The samples were tested for hygroscopicity using DVS Intrinsic (SMS, UK). 30-50 mg of a sample was placed into a sample pan, and the change of sample mass with humidity at 25° C. was recorded. The instrument parameters were:
After the hygroscopicity test was completed, the crystal form of the sample was tested by XRPD.

[3] = Stability influencing factor tests of compound A crystal form I (high temperature, high humidity, illumination)
Experimental: Stability influencing factor tests were carried out on the samples of compound A crystal form I. The corresponding placement conditions and test results are listed in Table 5.

[4] = Solubility and stability of the free base and crystalline salts in water, SGF, FaSSIF and FeSSIF; conditions: for Crystal form / crystallinity in the vehicle: XRPD
Text: The solubility and stability of compound A crystal form, compound A maleate crystal form I and compound A acetate crystal form I in water, SGF (simulated gastric fluid), FaSSIF (simulated intestinal fluid in fasted state) and FeSSIF (simulated intestinal fluid in fed state) were studied.

[5] = Accelerated stability study of the free base and crystalline salts (40° C./75% RH and 60° C., HPLC and XRPD)
Experimental: The crystals were tested for HPLC and XRPD in different time points.

[6] = Competitive slurrying testing at room temperature (trans-crystallization); conditions: isobutanol, isopropanol and methyl tert-butyl ether, one day
Experimental: 10 mg of compound A crystal form I, crystal form IV, crystal form V and crystal form VI were added to 500 μL of three different solvent systems (isobutanol, isopropanol and methyl tert-butyl ether), respectively. The mixture was slurried at room temperature for one day. The solids were dried at 50° C. under vacuum overnight and characterized by XRPD.

[7] = Heating study to 190° C. with XRPD (trans-crystallization); conditions: heated to 190° C.
Experimental: A certain amount of compound A crystal form V and VI were weighed, heated to 190° C. and then characterized by XRPD.

[8] = High humidity (92.5% RH/25° C.), 0 days
[9] = High humidity (92.5% RH/25° C.), 5 days
[10] = High humidity (92.5% RH/25° C.), 10 days
[11] = High humidity (92.5% RH/25° C.), 37 days
[12] = High temperature (60° C.), 0 days
[13] = High temperature (60° C.), 5 days
[14] = High temperature (60° C.), 10 days
[15] = High temperature (60° C.), 37 days
[16] = Illumination (1.2*10^6 Lux · hr, 200 w · hr/m^2), 0 days
[17] = Illumination (1.2*10^6 Lux · hr, 200 w · hr/m^2), 5 days
[18] = Illumination (1.2*10^6 Lux · hr, 200 w · hr/m^2), 10 days
[19] = FaSSIF (simulated intestinal fluid in fasted state), 37 °C, fassif, thermodynamic from solid, sample 10 mg/ml
[20] = FeSSIF (simulated intestinal fluid in fed state), 37 °C, fessif, thermodynamic from solid, sample 10 mg/ml
[21] = SGF (simulated gastric fluid), 37 °C, simulated gastric fluid, thermodynamic from solid, SGF, sample 10 mg/ml
[22] = water, thermodynamic from solid, H2O, room temperature, sample 5 mg/ml

Solubility ([1]; Acetone): ~246000 µg/mL (≈ 601 mM)
Solubility ([1]; Acetone, listed as starting material): greater than 100 mg/mL
Solubility ([1]; Acetonitrile): ~183000 µg/mL (≈ 447 mM)
Solubility ([1]; Butanone): ~173000 µg/mL (≈ 423 mM)
Solubility ([1]; Dichloromethane): ~240000 µg/mL (≈ 586 mM)
Solubility ([1]; Dichloromethane, listed as starting material): greater than 100 mg/mL
Solubility ([1]; Ethanol): ~21000 µg/mL (≈ 51.3 mM)
Solubility ([1]; Ethyl acetate): ~100000 µg/mL (≈ 244 mM)
Solubility ([1]; Isobutanol): ~1700 µg/mL (≈ 4.15 mM)
Solubility ([1]; Isopropanol): ~2500 µg/mL (≈ 6.11 mM)
Solubility ([1]; Isopropanol, listed as starting material): 1000 to 2000 µg/mL
Solubility ([1]; Isopropyl acetate): ~22000 µg/mL (≈ 53.7 mM)
Solubility ([1]; Methanol): ~190000 µg/mL (≈ 464 mM)
Solubility ([1]; Methyl tert-butyl ether): ~2500 µg/mL (≈ 6.11 mM)
Solubility ([1]; Methyl tert-butyl ether, listed as starting material): 1000 to 2000 µg/mL
Solubility ([1]; Tetrahydrofuran): ~215000 µg/mL (≈ 525 mM)
Solubility ([1]; Tetrahydrofuran, listed as starting material): greater than 100 mg/mL
Solubility ([1]; acetonitrile, organic solvent or mixture, thermodynamic from solid, Acetonitrile, read-out: Solubility): > 100000 µg/mL
Solubility ([1]; butanone, organic solvent or mixture, thermodynamic from solid, Butanone, read-out: Solubility): > 100000 µg/mL
Solubility ([1]; ethanol, organic solvent or mixture, thermodynamic from solid, Ethanol, read-out: Solubility): ~20000 µg/mL (≈ 48.8 mM)
Solubility ([1]; ethyl acetate, organic solvent or mixture, thermodynamic from solid, Ethyl acetate, read-out: Solubility): > 100000 µg/mL
Solubility ([1]; isobutanol, organic solvent or mixture, thermodynamic from solid, Isobutanol, read-out: Solubility): 1000 to 2000 µg/mL (≈ 2.44 to 4.88 mM)
Solubility ([1]; isopropyl acetate, organic solvent or mixture, thermodynamic from solid, Isopropyl acetate, read-out: Solubility): ~20000 µg/mL (≈ 48.8 mM)
Solubility ([1]; methanol, organic solvent or mixture, thermodynamic from solid, Methanol, read-out: Solubility): > 100000 µg/mL
Solubility ([1]; water): ~1000 µg/mL (≈ 2.44 mM)
Solubility ([1]; water, thermodynamic from solid, Water, read-out: Solubility): 1000 to 2000 µg/mL (≈ 2.44 to 4.88 mM)
Crystal form before and after the DVS test ([2]; XRPD): not changed
DVS weight gain ([2]; humidity increased from 0% RH to 80% RH, 25° C.): 0.17%
Content [3, 8]: 99.9%
Shape [3, 8]: White solid
Total impurity content [3, 8]: <0.05%
Content [3, 9]: 99.5%
Shape [3, 9]: White solid
Total impurity content [3, 9]: <0.05%
Content [3, 10]: 99.7%
Shape [3, 10]: White solid
Total impurity content [3, 10]: <0.05%
Content [3, 11]: 99.4%
Shape [3, 11]: White solid
Total impurity content [3, 11]: <0.05%
Content [3, 12]: 99.9%
Shape [3, 12]: White solid
Total impurity content [3, 12]: <0.05%
Content [3, 13]: 98.8%
Shape [3, 13]: White solid
Total impurity content [3, 13]: <0.05%
Content [3, 14]: 100.4%
Shape [3, 14]: White solid
Total impurity content [3, 14]: <0.05%
Content [3, 15]: 99.8%
Total impurity content [3, 15]: <0.05%
Content [3, 16]: 99.9%
Shape [3, 16]: White solid
Total impurity content [3, 16]: <0.05%
Content [3, 17]: 98.7%
Total impurity content [3, 17]: <0.05%
Content [3, 18]: 99.1%
Total impurity content [3, 18]: <0.05%
solubility at 0.5 h [4, 19]: 170 µg/mL
solubility at 24 h [4, 19]: 110 µg/mL
Solubility ([4]; FaSSIF (simulated intestinal fluid in fasted state), fassif, thermodynamic from solid, FaSSIF (simulated intestinal fluid in fasted state), read-out: Solubility): < 3000 µg/mL
Crystal form / crystallinity in the vehicle ([4]; FaSSIF): nearly amorphous
solubility at 0.5 h [4, 20]: 550 µg/mL
solubility at 24 h [4, 20]: 380 µg/mL
Solubility ([4]; FeSSIF (simulated intestinal fluid in fed state), fessif, thermodynamic from solid, FeSSIF (simulated intestinal fluid in fed state), read-out: Solubility): < 3000 µg/mL
Crystal form / crystallinity in the vehicle ([4]; FeSSIF): nearly amorphous
solubility at 0.5 h [4, 21]: 10900 µg/mL
solubility at 24 h [4, 21]: 10200 µg/mL
Solubility ([4]; SGF (simulated gastric fluid), simulated gastric fluid, thermodynamic from solid, SGF (simulated gastric fluid), read-out: Solubility): > 5000 µg/mL
Solubility ([4]; water): < 3000 µg/mL
Crystal form / crystallinity in the vehicle ([4]; water): not changed
solubility at 0.5 h [4, 22]: 110 µg/mL
solubility at 24 h [4, 22]: 95 µg/mL
Solubility ([4]; water, listed as free base): less than 0.2 mg/mL
Purity % ([5]; 0 days; HPLC): 99.2%
Crystal form ([5]; 0 days; XRPD): Unchanged
Crystal form ([5]; 40° C./75% RH, 7 days, XRPD): not changed
Purity ([5]; 40° C./75% RH, 7 days; HPLC): not changed
Purity % ([5]; 40° C./75% RH, 7 days; HPLC): 99.4%
Crystal form ([5]; 40° C./75% RH, 7 days; XRPD): Unchanged
Crystal form ([5]; 60° C., 7 days, XRPD): not changed
Purity ([5]; 60° C., 7 days; HPLC): not changed
Purity % ([5]; 60° C., 7 days; HPLC): 99.3%
Crystal form ([5]; 60° C., 7 days; XRPD): Unchanged
SMILES: [2H]C([2H])([2H])n1nc2c(c1C#N)-c1cnc(N)c(c1)O[C@H](C)c1cc(F)ccc1C(=O)N(C)C2 [compound A crystal form I, (10R)-7-amino-12-fluoro-2-(methyl-d3)-10,16-dimethyl-15-oxo-10,15,16,17-tetrahydro-2H-8,4-(metheno)pyrazolo[4,3-h][2,5,11]benzoxadiazacyclotetradecine-3-carbonitrile]

Trans-crystallization on competitive slurrying [6]: trans-crystallized to crystal form I
SMILES: [2H]C([2H])([2H])n1nc2c(c1C#N)-c1cnc(N)c(c1)O[C@H](C)c1cc(F)ccc1C(=O)N(C)C2 [compound A crystal form IV, (10R)-7-amino-12-fluoro-2-(methyl-d3)-10,16-dimethyl-15-oxo-10,15,16,17-tetrahydro-2H-8,4-(metheno)pyrazolo[4,3-h][2,5,11]benzoxadiazacyclotetradecine-3-carbonitrile]

Crystal form after heating [7]: transformed into crystal form I
SMILES: [2H]C([2H])([2H])n1nc2c(c1C#N)-c1cnc(N)c(c1)O[C@H](C)c1cc(F)ccc1C(=O)N(C)C2 [compound A crystal form V, (10R)-7-amino-12-fluoro-2-(methyl-d3)-10,16-dimethyl-15-oxo-10,15,16,17-tetrahydro-2H-8,4-(metheno)pyrazolo[4,3-h][2,5,11]benzoxadiazacyclotetradecine-3-carbonitrile]
